O=C(O)CCCCCCCCCCC(=O)O
solubility (mole fraction)
Settings	288.15 K	293.15 K	298.15 K	303.15 K	308.15 K	313.15 K	318.15 K	323.15 K	328.15 K
in acetic acid	0.00316	0.00434	0.00581	0.00776	0.0103	0.0136	0.0179	0.0235	0.0306
in acetone	0.00286	0.00402	0.00543	0.00757	0.00995	0.0133	0.0178	0.0238	0.0318
in ethanol	0.00793	0.0105	0.0138	0.0181	0.0236	0.0305	0.0394	0.0506	0.0648
in ethyl acetate	0.00115	0.00165	0.00231	0.00327	0.00461	0.00638	0.00879	0.0121	0.0165

Reference: BigSolDB 2.1
